Data: patent US9802898B2, “Phenyl and tertbutylacetic acid substituted pyridinones having anti-HIV effects” (priority 2014, dated 2017)
pIC50: −log10 of the molar value.

System: HIV
Experiment: MT4 assay, antiviral HIV activity
Assay type: cell-based
Conditions: Human immunodeficiency virus 1, 96 h, read-out: HIV MT4 Assay IC50
Experimental: Antiviral HIV activity and cytotoxicity values for compounds of the invention from Table 1 were measured in parallel in the HTLV-1 transformed cell line MT-4 based on the method previously described (Hazen et al., 2007, In vitro antiviral activity of the novel, tyrosyl-based human immunodeficiency virus (HIV) type 1 protease inhibitor brecanavir (GW640385) in combination with other antiretrovirals and against a panel of protease inhibitor-resistant HIV (Hazen et al., “In vitro antiviral activity of the novel, tyrosyl-based human immunodeficiency virus (HIV) type 1 protease inhibitor brecanavir (GW640385) in combination with other antiretrovirals and against a panel of protease inhibitor-resistant HIV”, Antimicrob. Agents Chemother. 2007, 51: 3147-3154; and Pauwels et al., “Sensitive and rapid assay on MT-4 cells for the detection of antiviral compounds against the AIDS virus”, J. of Virological Methods 1987, 16: 171-185).
Luciferase activity was measured 96 hours later by adding a cell titer glo (Promega, Madison, Wis.). Percent inhibition of cell protection data was plotted relative to no compound control. Under the same condition, cytotoxicity of the compounds was determined using cell titer Glo™ (Promega, Madison, Wis.). IC50s were determined from a 10 point dose response curve using 3-4-fold serial dilution for each compound, which spans a concentration range >1000 fold.
These values are plotted against the molar compound concentrations using the standard four parameter logistic equation: y=((Vmax*x^n)/(K^n+x^n))+Y2
Y2=minimum y n=slope factor
Vmax=maximum y x=compound concentration [M]

In the case of Cc1ccc(-c2c(C)c(C(=O)NCC3CCCCC3)cc(=O)n2C(CC(C)(C)C)C(=O)O)cc1 (stereo not drawn) [Example 8, 2-(4-(cyclohexylmethylcarbamoyl)-5-methyl-2-oxo-6-p-tolylpyridin-1(2H)-yl)-4,4-dimethylpentanoic acid], the pIC50 was 6.08.

Work on Cc1ccc(-c2c(C)cc(NS(=O)(=O)CC3CCCCC3)c(=O)n2C(CC(C)(C)C)C(=O)O)cc1 (stereo not drawn) [Example 10, 2-(3-(cyclohexylmethylsulfonamido)-5-methyl-2-oxo-6-(p-tolyl)pyridin-1(2H)-yl)-4,4-dimethylpentanoic acid] yielded a pIC50 of 5.81.

Compound Cc1ccc(-c2c(C)cc(NS(C)(=O)=O)c(=O)n2C(CC(C)(C)C)C(=O)O)cc1 (stereo not drawn) [Example 4, 4,4-Dimethyl-2-(5-methyl-3-(methylsulfonamido)-2-oxo-6-(p-tolyl)pyridin-1(2H)-yl)pentanoic acid] has a pIC50 of 4.48.

For Cc1ccc(-c2c(C)c(C(=O)NCc3ccccc3)cc(=O)n2C(CC(C)(C)C)C(=O)O)cc1 (stereo not drawn) [Example 9, 2-(4-(benzylcarbamoyl)-5-methyl-2-oxo-6-p-tolylpyridin-1(2H)-yl)-4,4-dimethylpentanoic acid], the pIC50 was 5.48.

For Cc1ccc(-c2c(C)c(-c3ccc(C)c(C)c3)c(NS(C)(=O)=O)c(=O)n2C(CC(C)(C)C)C(=O)O)cc1 (stereo not drawn) [Example 3, 2-(4-(3,4-dimethylphenyl)-5-methyl-3-(methylsulfonamido)-2-oxo-6-(p-tolyl)pyridin-1(2H)-yl)-4,4-dimethylpentanoic acid], the pIC50 was 6.51.

Cc1ccc(-c2c(C)c(-c3nnc(N[C@H]4CC[C@H](C)CC4)o3)cc(=O)n2C(CC(C)(C)C)C(=O)O)cc1 (stereo partly drawn) [Example 6, 4,4-Dimethyl-2-(5-methyl-4-(5-(((1 r,4r)-4-methylcyclohexyl)amino)-1,3,4-oxadiazol-2-yl)-2-oxo-6-(p-tolyl)pyridin-1(2H)-yl)pentanoic acid] showed a pIC50 of 5.25.

Compound Cc1ccc(-c2c(C)c(C(=O)N[C@H]3CC[C@H](C)CC3)cc(=O)n2C(CC(C)(C)C)C(=O)O)cc1 (stereo partly drawn) [Example 1, 4,4-Dimethyl-2-(5-methyl-4-(((1r,4r)-4-methylcyclohexyl)carbamoyl)-2-oxo-6-(p-tolyl)pyridin-1(2H)-yl)pentanoic acid] has a pIC50 of 6.46.

Cc1ccc(-c2c(C)c(-c3ccc(C)c(C)c3)cc(=O)n2C(CC(C)(C)C)C(=O)O)cc1 (stereo not drawn) [Example 2, 2-(4-(3,4-Dimethylphenyl)-5-methyl-2-oxo-6-(p-tolyl)pyridin-1(2H)-yl)-4,4-dimethylpentanoic acid] gave a pIC50 of 5.96.

For Cc1ccc(-c2c(C)c(C(=O)NC3CCCCC3)cc(=O)n2C(CC(C)(C)C)C(=O)O)cc1 (stereo not drawn) [Example 7, 2-(4-(cyclohexylcarbamoyl)-5-methyl-2-oxo-6-p-tolylpyridin-1(2H)-yl)-4,4-dimethylpentanoic acid], the pIC50 was 6.37.
